# Data taken from PubChem BioAssay AID192 (DTP/NCI, 2004).
# Where “and” joins values, the source holds several entries; their conditions need not be identical. Equal values may be shown once. Toxic doses and inconclusive results are not listed. Peptide text beside a SMILES is read from it. * marks the point of attachment. Cbz = O=C(OCc1ccccc1)*
# System: BDF1 mice, B16 melanoma ip, median survival T/C
# Experiment: NCI In Vivo Anticancer Drug Screen. Data for tumor model B16 Melanoma (intraperitoneal) in B6D2F1 (BDF1) mice
# Settings: endpoint: median survival time, higher = longer survival
# How it was run: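 Each result divides a survival or tumor-size measurement in the compound-treated group by the same measurement in the vehicle group.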
# [1] = dose: 25.0 mg/kg/injection, schedule: Q01DX009 (ip), vehicle: saline with Tween-80
# [2] = dose: 50.0 mg/kg/injection, schedule: Q01DX009 (ip), vehicle: saline with Tween-80
# [3] = dose: 100.0 mg/kg/injection, schedule: Q01DX009 (ip), vehicle: saline with Tween-80
# [4] = dose: 100.0 mg/kg/injection, schedule: Q04DX003 (ip), vehicle: saline
# [5] = dose: 100.0 mg/kg/injection, schedule: Q01DX009 (ip), vehicle: Klucel (hydroxypropylcellulose) (HPC)
# [6] = dose: 200.0 mg/kg/injection, schedule: Q01DX009 (ip), vehicle: Klucel (hydroxypropylcellulose) (HPC)
# [7] = dose: 12.5 mg/kg/injection, schedule: Q01DX009 (ip), vehicle: saline with Tween-80
# [8] = dose: 12.5 mg/kg/injection, schedule: Q01DX009 (ip), vehicle: Klucel (hydroxypropylcellulose) (HPC)
# [9] = dose: 25.0 mg/kg/injection, schedule: Q01DX009 (ip), vehicle: Klucel (hydroxypropylcellulose) (HPC)
# [10] = dose: 50.0 mg/kg/injection, schedule: Q01DX009 (ip), vehicle: Klucel (hydroxypropylcellulose) (HPC)
# [11] = dose: 6.25 mg/kg/injection, schedule: Q01DX009 (ip), vehicle: water
# [12] = dose: 12.5 mg/kg/injection, schedule: Q01DX009 (ip), vehicle: water
# [13] = dose: 25.0 mg/kg/injection, schedule: Q01DX009 (ip), vehicle: water
# [14] = dose: 50.0 mg/kg/injection, schedule: Q01DX009 (ip), vehicle: water
# [15] = dose: 400.0 mg/kg/injection, schedule: Q01DX009 (ip), vehicle: Klucel (hydroxypropylcellulose) (HPC)
# [16] = dose: 6.25 mg/kg/injection, schedule: Q01DX009 (ip), vehicle: saline with Tween-80
# [17] = dose: 100.0 mg/kg/injection, schedule: Q01DX009 (ip), vehicle: water
structure (smiles),measurement,setting,value
CCOC(=O)C(C)(Br)C(=O)OCC,T/C,[1],110 % of control
same,T/C,"dose: 25.0 mg/kg/injection, schedule: Q04DX003 (ip), vehicle: saline",115 % of control
same,T/C,[2],102 % of control
same,T/C,"dose: 50.0 mg/kg/injection, schedule: Q04DX003 (ip), vehicle: saline",118 % of control
same,T/C,[3],95 % of control
same,T/C,[4],118 % of control
CC(NC(=O)C(Cc1ccc(O)cc1)NC(=O)C(C)NC(=O)OCc1ccccc1)C(=O)O (stereo not drawn) (Cbz-Ala-Tyr-Ala-OH; configuration not given here),T/C,[2],98 % of control
same,T/C,[3],93 % of control
same,T/C,"dose: 200.0 mg/kg/injection, schedule: Q01DX009 (ip), vehicle: saline with Tween-80",96 % of control
same,T/C,"dose: 400.0 mg/kg/injection, schedule: Q01DX009 (ip), vehicle: saline with Tween-80",92 % of control
CN(C)N=Nc1cn(C)c(=O)n(C)c1=O,T/C,"dose: 12.5 mg/kg/injection, schedule: Q04DX003 (ip), vehicle: Klucel (hydroxypropylcellulose) (HPC)",100 % of control
same,T/C,"dose: 25.0 mg/kg/injection, schedule: Q04DX003 (ip), vehicle: Klucel (hydroxypropylcellulose) (HPC)",118 % of control
same,T/C,"dose: 50.0 mg/kg/injection, schedule: Q04DX003 (ip), vehicle: Klucel (hydroxypropylcellulose) (HPC)",103 % of control
Nc1ccc(OCc2ccc(S(=O)(=O)F)c(Cl)c2)c(Cl)c1,T/C,[5],110 % of control
same,T/C,[6],110 % of control
CC1(C)N=C(N)N=C(N)N1c1ccc(OCCCCNC(=O)c2ccc(S(=O)(=O)F)cc2)c(Cl)c1,T/C,[7],108 % of control
same,T/C,[1],112 % of control
same,T/C,[2],111 % of control
same,T/C,[3],112 % of control
NNC(=O)NO,T/C,[7],102 % of control
same,T/C,[1],121 % of control
CCc1ccccc1N1CCN(C(=O)c2cc(OC)c(OC)c(OC)c2)CC1,T/C,[8],88 % of control
same,T/C,[9],94 % of control
same,T/C,[10],94 % of control
O=C(Nc1cccc(Cl)c1)OCC(Cl)(Cl)Cl,T/C,"dose: 75.0 mg/kg/injection, schedule: Q01DX009 (ip), vehicle: Klucel (hydroxypropylcellulose) (HPC)",109 % of control
same,T/C,"dose: 150.0 mg/kg/injection, schedule: Q01DX009 (ip), vehicle: Klucel (hydroxypropylcellulose) (HPC)",103 % of control
same,T/C,"dose: 300.0 mg/kg/injection, schedule: Q01DX009 (ip), vehicle: Klucel (hydroxypropylcellulose) (HPC)",103 % of control
CC(=O)C1(O)CCCCC1,T/C,[4],95 % of control
same,T/C,"dose: 200.0 mg/kg/injection, schedule: Q04DX003 (ip), vehicle: saline",100 % of control
same,T/C,"dose: 400.0 mg/kg/injection, schedule: Q04DX003 (ip), vehicle: saline",100 % of control
CCCCn1ccnc1C,T/C,[11],106 % of control
same,T/C,[12],91 % of control
same,T/C,[13],101 % of control
same,T/C,[14],102 % of control
CCC[CH2][Ge]([Cl])([Cl])[CH2]CCC,T/C,[8],100 % of control
same,T/C,[9],90 % of control
COc1c(Cl)cc2c(c1OC)N(C)C1N3C(=O)C4(C)SSC3(C(=O)N4C)C(O)C21O (centres undefined),T/C,"dose: 0.12 mg/kg/injection, schedule: Q01DX009 (ip), vehicle: Klucel (hydroxypropylcellulose) (HPC)",103 % of control
same,T/C,"dose: 0.25 mg/kg/injection, schedule: Q01DX009 (ip), vehicle: Klucel (hydroxypropylcellulose) (HPC)",106 % of control
Cc1ccc(N2CSC(=S)N(c3ccc(C)cc3)C2)cc1,T/C,[5],86 % of control and 109 % of control
same,T/C,[6],86 % of control and 109 % of control
same,T/C,[15],102 % of control
ClC1CC[N-]CC1.ClC1CC[N-]CC1.[Cl][Pt+2]([Cl])([Cl])[Cl],T/C,"dose: 3.13 mg/kg/injection, schedule: Q01DX009 (ip), vehicle: saline with Tween-80",104 % of control
same,T/C,[16],104 % of control
same,T/C,[7],117 % of control
O=C(O)CC(NC(=O)OCc1ccccc1)C(=O)O (centres undefined),T/C,"dose: 1.56 mg/kg/injection, schedule: Q01DX009 (ip), vehicle: saline",98 % of control
same,T/C,"dose: 3.12 mg/kg/injection, schedule: Q01DX009 (ip), vehicle: saline",104 % of control
same,T/C,"dose: 6.25 mg/kg/injection, schedule: Q01DX009 (ip), vehicle: saline",92 % of control
O=S(=O)(NN=C(c1ccccc1)c1ccccc1)c1ccccc1,T/C,[9],86 % of control
same,T/C,[10],91 % of control
C=C(C)C(=O)OCC1CO1 (centres undefined),T/C,[10],102 % of control
same,T/C,[5],100 % of control
same,T/C,[6],109 % of control
Cc1cc([N+](=O)[O-])c(S(N)(=O)=O)c([N+](=O)[O-])c1,T/C,[11],110 % of control
same,T/C,[12],100 % of control
same,T/C,[13],101 % of control
same,T/C,[14],103 % of control
same,T/C,[17],101 % of control
CN1CCC23c4ccccc4NC1C21CCN(C)C3Nc2ccccc21,T/C,"dose: 1.87 mg/kg/injection, schedule: Q01DX009 (ip), vehicle: saline",107 % of control
same,T/C,"dose: 3.75 mg/kg/injection, schedule: Q01DX009 (ip), vehicle: saline",107 % of control
same,T/C,"dose: 7.5 mg/kg/injection, schedule: Q01DX009 (ip), vehicle: saline",109 % of control
c1ccc(C2CCCCCC2)cc1,T/C,"dose: 6.25 mg/kg/injection, schedule: Q01DX009 (ip), vehicle: other",108 % of control
same,T/C,"dose: 12.5 mg/kg/injection, schedule: Q01DX009 (ip), vehicle: other",98 % of control
same,T/C,"dose: 25.0 mg/kg/injection, schedule: Q01DX009 (ip), vehicle: other",111 % of control
same,T/C,"dose: 50.0 mg/kg/injection, schedule: Q01DX009 (ip), vehicle: other",109 % of control
same,T/C,"dose: 100.0 mg/kg/injection, schedule: Q01DX009 (ip), vehicle: other",89 % of control
Cc1ccc(NC(=O)Nc2cccc(Cl)c2)cc1C,T/C,[5],86 % of control
same,T/C,"dose: 100.0 mg/kg/injection, schedule: Q04DX003 (ip), vehicle: Klucel (hydroxypropylcellulose) (HPC)",92 % of control
same,T/C,[6],86 % of control
same,T/C,"dose: 200.0 mg/kg/injection, schedule: Q04DX003 (ip), vehicle: Klucel (hydroxypropylcellulose) (HPC)",92 % of control
same,T/C,[15],86 % of control
same,T/C,"dose: 400.0 mg/kg/injection, schedule: Q04DX003 (ip), vehicle: Klucel (hydroxypropylcellulose) (HPC)",92 % of control
CC1(C)N=C(N)N=C(N)N1c1cccc(CCCCc2cccc(S(=O)(=O)F)c2)c1,T/C,[16],115 % of control
same,T/C,[7],96 % of control
same,T/C,[1],87 % of control
CCCCCCCCCCCCSC1=CC(=O)C(OC)=C(OC)C1=O,T/C,"dose: 6.25 mg/kg/injection, schedule: Q01DX030 (ip), vehicle: saline with Tween-80",99 % of control
same,T/C,"dose: 12.5 mg/kg/injection, schedule: Q01DX030 (ip), vehicle: saline with Tween-80",95 % of control
same,T/C,"dose: 25.0 mg/kg/injection, schedule: Q01DX030 (ip), vehicle: saline with Tween-80",91 % of control
COc1cccc2c1C(=N)c1c(O)c3c(c(O)c1C2=O)C[C@@](O)(C(=O)CO)C[C@@H]3OC1CC(N)C(O)C(C)O1 (some centres undefined),T/C,"dose: 25.0 mg/kg/injection, schedule: Q01DX001 (ip), vehicle: water",230 % of control
same,T/C,"dose: 50.0 mg/kg/injection, schedule: Q01DX001 (ip), vehicle: water",292 % of control
same,T/C,"dose: 100.0 mg/kg/injection, schedule: Q01DX001 (ip), vehicle: water",307 % of control
CC(CC=O)CCCC(C)(C)O (centres undefined),T/C,[5],101 % of control
same,T/C,[6],97 % of control
Nc1nc2c(ncn2C2OC(CO)C(O)C2O)c(=O)[nH]1.Nc1nc2c(ncn2C2OC(CO)C(O)C2O)c(=O)[nH]1.[NH2-].[NH2-].[Pt+2] (centres undefined),T/C,[11],100 % of control and 108 % of control
same,T/C,[12],98 % of control and 114 % of control
same,T/C,[13],117 % of control
same,T/C,[14],109 % of control
same,T/C,[17],160 % of control
same,T/C,"dose: 200.0 mg/kg/injection, schedule: Q01DX009 (ip), vehicle: water",151 % of control and 170 % of control
CC(=O)OCc1c(O)c2c(c(O)c1COC(C)=O)C(=O)C=CC2=O,T/C,"dose: 6.25 mg/kg/injection, schedule: Q01DX009 (ip), vehicle: Klucel (hydroxypropylcellulose) (HPC)",94 % of control
same,T/C,[8],91 % of control
same,T/C,[9],89 % of control
C=C(C)[C@@H]1CC[C@]2(C)CC[C@]3(C)[C@H](CC[C@@H]4[C@@]5(C)CC[C@H](O)C(C)(C)[C@@H]5CC[C@]43C)[C@@H]12,T/C,"dose: 0.75 mg/kg/injection, schedule: Q01DX009 (ip), vehicle: Klucel (hydroxypropylcellulose) (HPC)",101 % of control
same,T/C,"dose: 1.5 mg/kg/injection, schedule: Q01DX009 (ip), vehicle: Klucel (hydroxypropylcellulose) (HPC)",95 % of control
same,T/C,"dose: 3.0 mg/kg/injection, schedule: Q01DX009 (ip), vehicle: Klucel (hydroxypropylcellulose) (HPC)",95 % of control
